Several values for one entry are separate records, joined by “and”; a condition that tells them apart may be missing. Equal values may be shown once.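 Each compound was tested at five concentrations against cells in 96-well plates for 48 hours. GI50 = concentration required for 50% inhibition of growth. TGI is the concentration that stops growth completely.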 *1 amine or outer side, *2 acyl side, *3 side chain or, on linkers, in order; H or OH if unused. Where a SMILES comes first, the peptide text is derived from it. [ ]: non-standard residue; d: D form. X56 = CC[C@H](C)[C@H](OC(=O)[C@@H](C)[C@@H](CC)N[*:1])C(=O)[*:2]; X32 = C[C@H](N[*:1])C(=O)C(C)(C)C(=O)[*:2]; NMeY = CN[C@@H](Cc1ccc(O)cc1)C(=O)O; NMeL = CN[C@@H](CC(C)C)C(=O)O; NMeV = CN[C@H](C(=O)O)C(C)C
What was measured:
Assay in all cases: NCI-60 cell line screen, 48 h
COLO 205 colon = test system: COLO 205 colon
DMS 273 small cell lung = test system: DMS 273 small cell lung
HCT-15 colon = test system: HCT-15 colon
KM12 colon = test system: KM12 colon
M19-MEL melanoma = test system: M19-MEL melanoma
NCI-H460 lung = test system: NCI-H460 lung
OVCAR-5 ovarian = test system: OVCAR-5 ovarian
SK-MEL-5 melanoma = test system: SK-MEL-5 melanoma
SNB-75 CNS = test system: SNB-75 CNS
SR leukemia = test system: SR leukemia

| SMILES | TGI (COLO 205 colon) [µM] | TGI (DMS 273 small cell lung) [µM] | TGI (HCT-15 colon) [µM] | TGI (KM12 colon) [µM] | TGI (M19-MEL melanoma) [µM] | TGI (NCI-H460 lung) [µM] | TGI (OVCAR-5 ovarian) [µM] | TGI (SK-MEL-5 melanoma) | TGI (SNB-75 CNS) [µM] | TGI (SR leukemia) | GI50 (COLO 205 colon) [µM] | GI50 (HCT-15 colon) [µM] | GI50 (KM12 colon) [µM] | GI50 (OVCAR-5 ovarian) [µM] | GI50 (SK-MEL-5 melanoma) [µM] | GI50 (SNB-75 CNS) [µM] | GI50 (SR leukemia) [µM] | GI50 (NCI-H460 lung) [µM] |
| --- | --- | --- | --- | --- | --- | --- | --- | --- | --- | --- | --- | --- | --- | --- | --- | --- | --- | --- |
| NNC(=O)/C(NC(=O)c1ccccc1)=C(\N)c1ccc(Cl)cc1 | > 100 | > 100 | > 100 | > 100 | > 100 | > 100 | > 100 | > 100 µM | > 100 | > 100 µM |  |  |  |  |  |  |  |  |
| O=c1c2ccccc2nc(-c2cccc(Cl)c2)n1NCC1(O)OCC(O)C(O)C1O (stereo unspecified) | > 100 | > 100 | > 100 | > 100 | > 100 | > 100 | > 100 |  |  | > 100 µM |  |  |  |  |  |  |  |  |
| COc1cc2c(c(OC)c1OC)-c1ccc(OC)c(=O)cc1[C@@H](N(C)C=O)CC2 | 0.0251 | > 100 | > 100 | 0.747 | > 100 |  | > 100 | 0.0401 µM | 0.615 |  |  |  |  |  |  |  |  |  |
| O=c1c2cccnc2ncn1CCN1CCCC1 | > 100 | > 100 |  | > 100 | > 100 | > 100 | > 100 | > 100 µM | > 100 | > 100 µM |  |  |  |  |  |  |  |  |
| c1ccc(COC2(OCc3ccccc3)CC3OC2C2NN=NC32)cc1 (stereo unspecified) | > 100 | 53.4 | 90.6 | 80.7 | 32.2 | > 100 | > 100 | 32.3 µM | 42.3 |  |  |  |  |  |  |  |  |  |
| CC1(C)CC(Nc2ccc(Nc3ccccc3)cc2)CC(C)(C)N1 | 32.5 | > 100 | 70.4 | 71.2 | > 94.2 | 64 | > 63.1 | 30.5 µM | > 100 | 50.2 µM |  |  |  |  |  |  |  |  |
| Cc1ccc(Oc2ccc([N+](=O)[O-])cc2[N+](=O)[O-])c(C)c1 |  | > 100 | > 100 |  | > 100 | > 100 | > 100 | 50 µM | > 100 |  |  |  |  |  |  |  |  |  |
| Cc1cccc(C)c1NC(=O)CCc1n[nH]c(=S)o1 | 85.1 | > 100 | > 100 | > 100 | > 100 | > 100 | > 100 | > 100 µM | > 100 |  |  |  |  |  |  |  |  |  |
| C=CCn1cc(C(=O)NC(=O)NCCCCCOC(=O)CCCCCCCCCCC(=O)OCCCCCNC(=O)NC(=O)c2cn(CC=C)c(=O)n(C)c2=O)c(=O)n(C)c1=O | > 100 | > 100 | > 100 | > 100 | > 100 | > 100 | > 100 | > 100 µM | > 100 |  |  |  |  |  |  |  |  |  |
| S=c1nc(N2CCCCC2)ss1 |  | 42.3 | 62.6 | 33.9 | 52.3 | 80.5 | > 100 | 30.5 µM | 77 | 45.4 µM |  |  |  |  |  |  |  |  |
| COC(=O)C1C(OCc2ccccc2)C2CCC1(OC)C=C2C (stereo unspecified) | > 100 | > 83.9 | > 100 | > 100 | > 100 | > 100 | > 100 | > 100 µM | > 100 | 66.6 µM |  |  |  |  |  |  |  |  |
| Cc1c(N=Cc2ccc(N(CCC#N)CCC#N)cc2)c(=O)n(-c2ccccc2)n1C | > 100 | > 100 | > 100 | > 100 | > 100 | > 100 | > 100 | > 100 µM | 60.1 | > 100 µM |  |  |  |  |  |  |  |  |
| CC1C(=O)O[C@H]2C1CC[C@@]1(C)[C@H](O)CC[C@@]13C[C@]2(O)OO3 (stereo partly specified) | > 100 | > 100 | > 100 |  | > 100 | > 100 | > 100 | > 100 µM |  | > 100 µM |  |  |  |  |  |  |  |  |
| COc1cc(/C=C(\OC(C)=O)c2ccc3c(c2)OCO3)cc(OC)c1OC | 51.5 | 33.6 | 36.9 | 48.7 | 30.9 | > 100 | > 100 | 24.5 µM | 46.7 | > 100 µM |  |  |  |  |  |  |  |  |
| CC[C@H](C)[C@@H]1OC(=O)[C@@H](C)[C@@H](CC)NC(=O)[C@H](C)NC(=O)C(C)(C)C(=O)[C@H](C)NC(=O)[C@H](Cc2ccc(OC)cc2)N(C)C(=O)[C@H](C(C)C)N(C)C(=O)CNC(=O)[C@H](CC(C)C)N(C)C(=O)CNC1=O (cyclo(A[X56]G[NMeL]G[NMeV][NMeY](Me)[X32])) | > 33.3 | 0.072 | > 34.2 | 91.2 | 22.3 |  | > 100 | 0.173 µM and 0.462 µM |  | 1.06 µM and 0.6 µM | 0.034 | 0.222 | 0.679 | 0.349 | 0.135 | < 0.0154 | 0.063 |  |
| CC/C=C/c1cc2cc[nH]c2c2c1C(C)C[C@@H]2C (stereo partly specified) | 37.6 |  | 82.5 | 40.8 | 77.3 | 65.3 |  | 46.4 µM | 70.1 |  |  |  |  |  |  |  |  |  |
| O=C(c1ccc(Cl)cc1)c1ccc(OCCSCCCCCCCCCCSCCOc2ccc(C(=O)c3ccc(Cl)cc3)cc2)cc1 | > 100 | > 100 | > 100 | > 100 | > 100 | > 100 | > 100 | > 100 µM | > 100 |  |  |  |  |  |  |  |  |  |
| C/C(=N\N=C(N)N)C(CN(C)C)C(c1ccccc1)c1c(O)c2ccccc2oc1=O (stereo unspecified) | > 100 | > 100 | > 100 | > 100 | > 100 | > 100 | > 100 | > 100 µM | > 100 | > 100 µM |  |  |  |  |  |  |  |  |
| Cn1cnc([N+](=O)[O-])c1Sc1nnnn1-c1ccccc1 | 20.7 | 29 |  | 35.2 | 24.4 | 33.5 | 31.7 | 29.9 µM | 31 |  |  |  |  |  |  |  |  |  |
| CC1(O)CCC2(C#N)CCC1C2O (stereo unspecified) | > 100 | > 100 | > 100 | > 100 | > 100 | > 100 | > 100 | > 100 µM | > 100 | 45.4 µM |  |  |  |  |  |  |  |  |
| CCNCCCn1c2c(c3ccc([N+](=O)[O-])cc3c1=O)C(=O)c1cc(OC)cnc1-2 | 1.67 |  | 1.26 | 0.505 |  | 0.376 | 0.675 | 0.234 µM | 1.54 | 1.27 µM | 0.0874 | 0.184 | 0.197 | 0.176 | 0.078 | 0.126 |  | 0.0321 |
| CCOC(=O)c1cc(C(=O)c2cc(OC)c(OC)c(OC)c2)n2ccccc12 | 2.57 |  | > 100 | > 100 |  | > 100 | > 100 | > 100 µM | 21.5 | > 100 µM | 0.0588 | 0.0565 | 0.0744 | 0.813 | 0.0409 | 0.0461 | 0.041 | 0.0772 |

From PubChem BioAssay (NCI)
